Measurements published in ChEMBL document CHEMBL1201862, “PubChem BioAssay data set” (2004).
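Dose response: 5 concentrations. Exposure: 48 h. Format: 96-well plates. Endpoint: linear interpolation; highest concentration if not reached. GI50 marks 50% less growth.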 The source made the active and inactive calls. Rule as the data show it: active = GI50 up to about 1.1 µM and inactive = higher.

Tests used:
Test in all cases: growth of human tumour cells (NCI), 48 h
CCRF-CEM = system: CCRF-CEM
Hs-578T = system: Hs-578T
HT-29 = system: HT-29
SF-268 = system: SF-268
KM12 = system: KM12
UACC-62 = system: UACC-62
MDA-MB-231 = system: MDA-MB-231
SN12C = system: SN12C
HCT-15 = system: HCT-15
OVCAR-3 = system: OVCAR-3
Malme-3M = system: Malme-3M
OVCAR-4 = system: OVCAR-4
A498 = system: A498
T47D = system: T47D
ACHN = system: ACHN
NCI/ADR-RES = system: NCI/ADR-RES
TK-10 = system: TK-10
SK-MEL-28 = system: SK-MEL-28
SW-620 = system: SW-620
UO-31 = system: UO-31
UACC-257 = system: UACC-257
NCI-H23 = system: NCI-H23
MOLT-4 = system: MOLT-4
SR = system: SR
HCC 2998 = system: HCC 2998
HCT-116 = system: HCT-116
LOX IMVI = system: LOX IMVI
SF-295 = system: SF-295
MDA-N = system: MDA-N
SF-539 = system: SF-539
CAKI-1 = system: CAKI-1
SK-MEL-5 = system: SK-MEL-5
K562 = system: K562
M14 = system: M14
MCF7 = system: MCF7
U-251 = system: U-251
HOP-92 = system: HOP-92
NCI-H522 = system: NCI-H522
NCI-H226 = system: NCI-H226
SK-OV-3 = system: SK-OV-3
BT-549 = system: BT-549
MDA-MB-435 = system: MDA-MB-435
SK-MEL-2 = system: SK-MEL-2
PC-3 = system: PC-3
OVCAR-5 = system: OVCAR-5
HOP-62 = system: HOP-62
NCI-H460 = system: NCI-H460
OVCAR-8 = system: OVCAR-8
DU-145 = system: DU-145
COLO 205 = system: COLO 205
IGROV-1 = system: IGROV-1
RXF 393 = system: RXF 393
786-0 = system: 786-0
HL-60 = system: HL-60
EKVX = system: EKVX
A549 = system: A549
SNB-19 = system: SNB-19
SNB-75 = system: SNB-75
RPMI-8226 = system: RPMI-8226

In the case of `COc1cc(O)c2c(=O)c3ccccc3n(C)c2c1`, the GI50 (CCRF-CEM) is reported as 24000 nM (inactive), the GI50 (Hs-578T) is reported as 13400 nM (inactive) and the GI50 (HT-29) is reported as > 100000 nM (inactive). The GI50 (SF-268) was 53700 nM (inactive), the GI50 (KM12) was > 100000 nM (inactive) and the GI50 (UACC-62) was 24600 nM (inactive). The GI50 (MDA-MB-231) was 71300 nM (inactive), the GI50 (SN12C) was > 100000 nM (inactive) and the GI50 (HCT-15) was 43500 nM. The GI50 (OVCAR-3) was > 100000 nM (inactive), the GI50 (Malme-3M) was > 100000 nM (inactive) and the GI50 (OVCAR-4) was 89300 nM (inactive). The GI50 (A498) was 90400 nM (inactive), the GI50 (T47D) was > 100000 nM (inactive) and the GI50 (ACHN) was 14000 nM (inactive). For the same compound, the GI50 (NCI/ADR-RES) was 32700 nM (inactive), the GI50 (TK-10) was 20100 nM (inactive) and the GI50 (SK-MEL-28) was > 100000 nM (inactive). The GI50 (SW-620) was 63800 nM (inactive), the GI50 (UO-31) was 6850 nM (inactive) and the GI50 (UACC-257) was > 100000 nM (inactive). For the same compound, the GI50 (NCI-H23) was > 100000 nM (inactive), the GI50 (MOLT-4) was 8430 nM (inactive) and the GI50 (SR) was 7260 nM (inactive). The GI50 (HCC 2998) was > 100000 nM (inactive), the GI50 (HCT-116) was 10200 nM (inactive) and the GI50 (LOX IMVI) was 84500 nM (inactive). The GI50 (SF-295) was 27700 nM (inactive), the GI50 (MDA-N) was > 100000 nM (inactive) and the GI50 (SF-539) was 28400 nM (inactive). The GI50 (CAKI-1) was > 100000 nM (inactive), the GI50 (SK-MEL-5) was 4660 nM (inactive) and the GI50 (K562) was > 100000 nM (inactive). The GI50 (M14) was > 100000 nM (inactive), the GI50 (MCF7) was > 100000 nM (inactive) and the GI50 (U-251) was 29400 nM (inactive). For the same compound, the GI50 (HOP-92) was 46100 nM (inactive), the GI50 (NCI-H522) was 22300 nM (inactive) and the GI50 (NCI-H226) was > 100000 nM (inactive). For the same compound, the GI50 (SK-OV-3) was 26800 nM (inactive), the GI50 (BT-549) was 52200 nM (inactive) and the GI50 (MDA-MB-435) was > 100000 nM (inactive). The GI50 (SK-MEL-2) was > 100000 nM (inactive), the GI50 (PC-3) was > 100000 nM (inactive) and the GI50 (OVCAR-5) was > 100000 nM (inactive). The GI50 (HOP-62) was 15900 nM (inactive), the GI50 (NCI-H460) was 4480 nM (inactive) and the GI50 (OVCAR-8) was 18700 nM (inactive). For the same compound, the GI50 (DU-145) was > 100000 nM (inactive), the GI50 (COLO 205) was > 100000 nM (inactive) and the GI50 (IGROV-1) was > 100000 nM (inactive). The GI50 (RXF 393) was 14900 nM (inactive), the GI50 (786-0) was 21500 nM (inactive) and the GI50 (HL-60) was > 100000 nM (inactive). For the same compound, the GI50 (EKVX) was 555 nM (active), the GI50 (A549) was > 100000 nM (inactive) and the GI50 (SNB-19) was 253 nM (active).
With `[O-]c1c2cc(-[n+]3c(-c4ccccc4)cc(-c4ccccc4)cc3-c3ccccc3)cc1CO[C@@H](c1ccccc1)[C@H](c1ccccc1)OCc1cccc(n1)CO[C@@H](c1ccccc1)[C@H](c1ccccc1)OC2` the GI50 (CCRF-CEM) was 31.4 nM (active), the GI50 (Hs-578T) was 676 nM (active) and the GI50 (HT-29) was 31.8 nM (active). The GI50 (SF-268) was 68.9 nM (active), the GI50 (KM12) was 38.3 nM (active) and the GI50 (UACC-62) was 93.1 nM (active). For the same compound, the GI50 (MDA-MB-231) was 160 nM (active), the GI50 (SN12C) was 37.8 nM (active) and the GI50 (HCT-15) was 740 nM. The GI50 (OVCAR-3) was 29.9 nM (active), the GI50 (Malme-3M) was 36.3 nM (active) and the GI50 (OVCAR-4) was 90 nM (active). For the same compound, the GI50 (A498) was 867 nM (active), the GI50 (T47D) was 111 nM (active) and the GI50 (ACHN) was 304 nM (active). For the same compound, the GI50 (NCI/ADR-RES) was 1970 nM (inactive), the GI50 (SNB-75) was 68.2 nM (active) and the GI50 (TK-10) was 594 nM (active). For the same compound, the GI50 (SK-MEL-28) was 713 nM (active), the GI50 (SW-620) was 56.8 nM (active) and the GI50 (UO-31) was 625 nM (active). For the same compound, the GI50 (UACC-257) was 80.3 nM (active), the GI50 (NCI-H23) was 56.9 nM (active) and the GI50 (MOLT-4) was 52.6 nM (active). For the same compound, the GI50 (SR) was 35 nM (active), the GI50 (HCC 2998) was 453 nM (active) and the GI50 (HCT-116) was 28.6 nM (active). For the same compound, the GI50 (LOX IMVI) was 49.8 nM (active), the GI50 (RPMI-8226) was 13.5 nM (active) and the GI50 (SF-295) was 102 nM (active). For the same compound, the GI50 (MDA-N) was 54.8 nM (active), the GI50 (SF-539) was 371 nM (active) and the GI50 (CAKI-1) was 367 nM (active). For the same compound, the GI50 (SK-MEL-5) was 42.4 nM (active), the GI50 (K562) was 29.3 nM (active) and the GI50 (M14) was 161 nM (active). For the same compound, the GI50 (MCF7) was 38.8 nM (active), the GI50 (U-251) was 28.5 nM (active) and the GI50 (HOP-92) was 32.2 nM (active). The GI50 (NCI-H522) was 35.3 nM (active), the GI50 (SK-OV-3) was 77.5 nM (active) and the GI50 (BT-549) was 57 nM (active). For the same compound, the GI50 (MDA-MB-435) was 50.1 nM (active), the GI50 (SK-MEL-2) was 56.9 nM (active) and the GI50 (PC-3) was 37.3 nM (active). For the same compound, the GI50 (OVCAR-5) was 514 nM (active), the GI50 (HOP-62) was 169 nM (active) and the GI50 (NCI-H460) was 56 nM (active). For the same compound, the GI50 (OVCAR-8) was 48.8 nM (active), the GI50 (DU-145) was 326 nM (active) and the GI50 (COLO 205) was 25.9 nM (active). For the same compound, the GI50 (IGROV-1) was 38.8 nM (active), the GI50 (RXF 393) was 219 nM (active) and the GI50 (786-0) was 76.4 nM (active). For the same compound, the GI50 (HL-60) was 21.5 nM (active), the GI50 (EKVX) was 83.8 nM (active) and the GI50 (A549) was 53.6 nM (active). For the same compound, the GI50 (SNB-19) was 51.4 nM (active).
